Laboratory results published in patent publication US7183324B2, “2,3,4-substituted cyclopentanones as therapeutic agents” (Allergan, Inc., priority 2004, dated 2007).

Assays:
[1] = molecular target: T1, hEP2/Gqs5 (Homo sapiens, UniProt P43116); assay: FLIPR calcium signal, hEP2/Gqs5; assay type: cell-based; settings: HEK-293 (EBNA) cells, read-out: FUNCTIONAL EC50 HEP2
T1 construct: expressed in transfected cells; host or cells: HEK-293 (EBNA)
Procedure: (§1) HEK-293 (EBNA) cells, stably expressing one type or subtype of recombinant human prostaglandin receptors (prostaglandin receptors expressed: hDP/Gqs5; hEP1; hEP2/Gqs5; hEP3A/Gqi5; hEP4/Gqs5; hFP; hIP; hTP), were cultured in 100 mm culture dishes in high-glucose DMEM medium containing 10% fetal bovine serum, 2 mM 1-glutamine, 250 μg/ml geneticin (G418) and 200 μg/ml hygromycin B as selection markers, and 100 units/ml penicillin G, 100 μg/ml streptomycin and 0.25 μg/ml amphotericin B. • (b) Calcium Signal Studies on the FLIPR™
(§2) Cells were seeded at a density of 5×10^4 cells per well in Biocoat® Poly-D-lysine-coated black-wall, clear-bottom 96-well plates (Becton-Dickinson) and allowed to attach overnight in an incubator at 37° C. Cells were then washed two times with HBSS-HEPES buffer (Hanks Balanced Salt Solution without bicarbonate and phenol red, 20 mM HEPES, pH 7.4) using a Denley Cellwash plate washer (Labsystems). After 45 minutes of dye-loading in the dark, using the calcium-sensitive dye Fluo-4 AM at a final concentration of 2 μM, plates were washed four times with HBSS-HEPES buffer to remove excess dye leaving 100 μl in each well. Plates were re-equilibrated to 37° C. for a few minutes.
(§3) Cells were excited with an Argon laser at 488 nm, and emission was measured through a 510–570 nm bandwidth emission filter (FLIPR™, Molecular Devices, Sunnyvale, Calif.). Drug solution was added in a 50 μl volume to each well to give the desired final concentration. The peak increase in fluorescence intensity was recorded for each well. On each plate, four wells each served as negative (HBSS-HEPES buffer) and positive controls (standard agonists: BW245C (hDP); PGE2 (hEP1; hEP2/Gqs5; hEP3A/Gqi5; hEP4/Gqs5); PGF2α (hFP); carbacyclin (hIP); U46619 (hTP), depending on receptor). The peak fluorescence change in each drug-containing well was then expressed relative to the controls.
Compounds were tested in a high-throughput (HTS) or concentration-response (CoRe) format. […]

[2] = molecular target: T2, HEP2 (Homo sapiens, UniProt P43116); assay: Radioligand binding, EP2 receptor; settings: [3H]PGE2 5 nM, HEK-293 membranes
T2 construct: expressed in transfected cells; host or cells: HEK-293
T2 sequence (P43116 whole entry): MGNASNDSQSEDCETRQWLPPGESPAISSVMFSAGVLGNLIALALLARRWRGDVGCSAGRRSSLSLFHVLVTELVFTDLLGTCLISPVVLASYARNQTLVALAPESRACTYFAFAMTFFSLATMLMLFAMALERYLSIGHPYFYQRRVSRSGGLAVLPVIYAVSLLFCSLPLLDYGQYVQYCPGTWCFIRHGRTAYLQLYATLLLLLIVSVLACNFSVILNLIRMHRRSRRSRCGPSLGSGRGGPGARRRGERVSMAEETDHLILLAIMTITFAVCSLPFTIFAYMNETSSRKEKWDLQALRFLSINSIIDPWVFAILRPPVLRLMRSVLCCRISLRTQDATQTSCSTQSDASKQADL
Procedure: (§4) HEK-293 cells stably expressing the human or feline FP receptor, or EP1, EP2, or EP4 receptors were washed with TME buffer, scraped from the bottom of the flasks, and homogenized for 30 sec using a Brinkman PT 10/35 polytron. TME buffer was added to achieve a final 40 ml volume in the centrifuge tubes (the composition of TME is 100 mM TRIS base, 20 mM MgCl2, […]; 10N HCl is added to achieve a pH of 7.4).
(§5) The cell homogenate was centrifuged at 19000 r.p.m. for 20 min at 4° C. using a Beckman Ti-60 rotor. The resultant pellet was resuspended in TME buffer to give a final 1 mg/ml protein concentration, as determined by Biorad assay. Radioligand binding competition assays vs. [^3H-]17-phenyl PGF2α (5 nM) were performed in a 100 μl volume for 60 min. Binding reactions were started by adding plasma membrane fraction. The reaction was terminated by the addition of 4 ml ice-cold TRIS-HCl buffer and rapid filtration through glass fiber GF/B filters using a Brandel cell harvester. The filters were washed 3 times with ice-cold buffer and oven dried for one hour. Non-specific binding was determined with 10 uM unlabeled 17-phenyl PGF2α.
(§6) [^3H-] PGE2 (5 nM; specific activity 180 Ci mmol) was used as the radioligand for EP receptors. Binding studies employing EP1, EP2, EP3, EP4 were performed in duplicate in at least three separate experiments. A 200 μl assay volume was used. Incubations were for 60 min at 25° C. and were terminated by the addition of 4 ml of ice-cold 50 mM TRIS-HCl, followed by rapid filtration through Whatman GF/B filters and three additional 4 ml washes in a cell harvester (Brandel). Non-specific binding determined with 10^−5M of unlabeled PGE2.

[3] = molecular target: T3, hIP (Homo sapiens, UniProt P43119); assay: FLIPR calcium signal, hIP; assay type: cell-based; settings: HEK-293 (EBNA) cells, read-out: FUNCTIONAL EC50 HIP
T3 construct: expressed in transfected cells; host or cells: HEK-293 (EBNA)
T3 sequence (P43119 whole entry): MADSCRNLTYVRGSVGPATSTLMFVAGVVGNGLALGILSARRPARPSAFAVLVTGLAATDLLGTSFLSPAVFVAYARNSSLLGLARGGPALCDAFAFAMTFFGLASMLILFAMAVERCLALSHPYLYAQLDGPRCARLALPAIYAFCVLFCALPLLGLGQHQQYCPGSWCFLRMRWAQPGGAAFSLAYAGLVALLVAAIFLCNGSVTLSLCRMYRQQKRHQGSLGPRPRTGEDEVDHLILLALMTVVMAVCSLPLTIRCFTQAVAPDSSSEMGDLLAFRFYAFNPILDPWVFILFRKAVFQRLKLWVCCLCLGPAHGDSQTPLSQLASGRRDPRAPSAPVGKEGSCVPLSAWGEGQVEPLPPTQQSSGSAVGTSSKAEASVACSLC
Procedure: as §1
(§7) Cells were seeded at a density of 5×10^4 cells per well in Biocoat® Poly-D-lysine-coated black-wall, clear-bottom 96-well plates (Becton-Dickinson) and allowed to attach overnight in an incubator at 37° C. Cells were then washed two times with HBSS-HEPES buffer (Hanks Balanced Salt Solution without bicarbonate and phenol red, 20 mM HEPES, pH 7.4) using a Denley Cellwash plate washer (Labsystems). […]
(§8) Cells were excited with an Argon laser at 488 nm, and emission was measured through a 510–570 nm bandwidth emission filter (FLIPR™, Molecular Devices, Sunnyvale, Calif.). […] The peak increase in fluorescence intensity was recorded for each well. […] The peak fluorescence change in each drug-containing well was then expressed relative to the controls. […]

[4] = molecular target: T4, hTP (Homo sapiens, UniProt P21731); assay: FLIPR calcium signal, hTP; assay type: cell-based; settings: HEK-293 (EBNA) cells, read-out: FUNCTIONAL EC50 HTP
T4 construct: expressed in transfected cells; host or cells: HEK-293 (EBNA)
T4 sequence (P21731 1-343): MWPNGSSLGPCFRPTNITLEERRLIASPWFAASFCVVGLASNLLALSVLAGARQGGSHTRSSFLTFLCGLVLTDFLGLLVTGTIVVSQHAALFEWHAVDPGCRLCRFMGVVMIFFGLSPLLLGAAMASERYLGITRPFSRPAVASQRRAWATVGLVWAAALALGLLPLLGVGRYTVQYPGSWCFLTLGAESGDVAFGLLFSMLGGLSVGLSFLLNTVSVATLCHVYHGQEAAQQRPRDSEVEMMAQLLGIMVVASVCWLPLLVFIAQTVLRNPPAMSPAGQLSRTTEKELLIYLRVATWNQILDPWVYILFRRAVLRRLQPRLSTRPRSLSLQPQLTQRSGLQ
Procedure: as §1, §2, §3
(§9) Compounds were tested in a high-throughput (HTS) or concentration-response (CoRe) format. In the HTS format, forty-four compounds per plate were examined in duplicates at a concentration of 10^−5 M. To generate concentration-response curves, four compounds per plate were tested in duplicates in a concentration range between 10^−5 and 10^−11 M. The duplicate values were averaged. In either, HTS or CoRe format each compound was tested on at least 3 separate plates using cells from different passages to give an n≧3.

[5] = molecular target: T5, HEP4 (Homo sapiens, UniProt P35408); assay: Radioligand binding, EP4 receptor; settings: [3H]PGE2 5 nM, HEK-293 membranes
T5 construct: expressed in transfected cells; host or cells: HEK-293
T5 sequence (P35408 whole entry): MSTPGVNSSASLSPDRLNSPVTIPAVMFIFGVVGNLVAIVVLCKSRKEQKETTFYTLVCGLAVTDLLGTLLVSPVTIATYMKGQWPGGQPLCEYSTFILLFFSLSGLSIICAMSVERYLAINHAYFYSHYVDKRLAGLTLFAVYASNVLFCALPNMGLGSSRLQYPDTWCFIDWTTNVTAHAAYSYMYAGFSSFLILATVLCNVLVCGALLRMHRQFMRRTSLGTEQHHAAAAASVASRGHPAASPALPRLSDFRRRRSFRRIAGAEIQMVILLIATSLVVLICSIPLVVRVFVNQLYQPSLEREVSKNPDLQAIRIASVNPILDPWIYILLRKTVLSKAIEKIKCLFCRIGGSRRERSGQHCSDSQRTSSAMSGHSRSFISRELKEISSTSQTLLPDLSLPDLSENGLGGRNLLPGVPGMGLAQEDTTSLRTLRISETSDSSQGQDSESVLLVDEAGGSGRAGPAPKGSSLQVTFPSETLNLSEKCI
Procedure: as §4, §5, §6

[6] = molecular target: T6, hEP3A/Gqi5 (Homo sapiens, UniProt P43115); assay: FLIPR calcium signal, hEP3A/Gqi5; assay type: cell-based; settings: HEK-293 (EBNA) cells, read-out: FUNCTIONAL EC50 HEP3A
T6 construct: expressed in transfected cells; host or cells: HEK-293 (EBNA)
T6 sequence (P43115 1-390): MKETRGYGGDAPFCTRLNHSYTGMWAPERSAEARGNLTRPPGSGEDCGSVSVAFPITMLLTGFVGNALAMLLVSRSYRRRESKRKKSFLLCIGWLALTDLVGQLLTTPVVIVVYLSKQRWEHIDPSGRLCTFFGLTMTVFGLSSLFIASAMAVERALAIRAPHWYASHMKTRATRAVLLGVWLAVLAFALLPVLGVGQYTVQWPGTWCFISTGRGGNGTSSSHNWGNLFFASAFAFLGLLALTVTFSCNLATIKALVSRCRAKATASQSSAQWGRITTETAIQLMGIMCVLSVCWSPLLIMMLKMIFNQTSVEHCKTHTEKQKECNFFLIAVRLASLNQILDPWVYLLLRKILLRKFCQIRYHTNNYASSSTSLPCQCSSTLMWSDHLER
Procedure: as §1, §2, §3, §9

[7] = molecular target: T7, hEP4/Gqs5 (Homo sapiens, UniProt P35408); assay: FLIPR calcium signal, hEP4/Gqs5; assay type: cell-based; settings: HEK-293 (EBNA) cells, read-out: FUNCTIONAL EC50 HEP4
T7 construct: expressed in transfected cells; host or cells: HEK-293 (EBNA)
T7 sequence (P35408 whole entry): as the sequence (P35408 whole entry) above
Procedure: as §1, §2, §3, §9

[8] = molecular target: T8, HEP3D (Homo sapiens, UniProt P43115); assay: Radioligand binding, EP3 receptor; settings: [3H]PGE2 5 nM
T8 sequence (P43115 1-374 isoform P43115-4): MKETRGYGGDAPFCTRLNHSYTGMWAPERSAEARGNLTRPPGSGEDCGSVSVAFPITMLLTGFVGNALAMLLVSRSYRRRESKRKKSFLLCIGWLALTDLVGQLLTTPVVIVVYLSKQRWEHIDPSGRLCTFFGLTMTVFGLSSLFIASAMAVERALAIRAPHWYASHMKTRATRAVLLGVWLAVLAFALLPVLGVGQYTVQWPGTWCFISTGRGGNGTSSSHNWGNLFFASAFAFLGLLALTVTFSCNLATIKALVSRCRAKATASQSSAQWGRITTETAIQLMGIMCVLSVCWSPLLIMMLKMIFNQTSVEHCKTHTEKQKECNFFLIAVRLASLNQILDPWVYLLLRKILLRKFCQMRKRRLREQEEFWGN
Procedure: as §4, §5, §6

[9] = molecular target: T9, hDP/Gqs5 (Homo sapiens, UniProt Q13258); assay: FLIPR calcium signal, hDP/Gqs5; assay type: cell-based; settings: HEK-293 (EBNA) cells, read-out: FUNCTIONAL EC50 HDP
T9 construct: expressed in transfected cells; host or cells: HEK-293 (EBNA)
T9 sequence (Q13258 1-359): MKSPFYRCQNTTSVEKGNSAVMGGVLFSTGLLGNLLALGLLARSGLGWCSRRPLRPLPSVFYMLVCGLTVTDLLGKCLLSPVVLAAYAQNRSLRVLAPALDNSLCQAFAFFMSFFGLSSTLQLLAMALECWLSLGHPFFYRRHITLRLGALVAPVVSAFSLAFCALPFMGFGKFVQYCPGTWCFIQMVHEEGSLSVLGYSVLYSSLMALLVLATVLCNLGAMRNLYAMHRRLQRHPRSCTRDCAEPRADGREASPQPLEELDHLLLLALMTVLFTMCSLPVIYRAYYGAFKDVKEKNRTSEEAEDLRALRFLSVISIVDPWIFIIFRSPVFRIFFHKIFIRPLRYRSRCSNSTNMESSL
Procedure: as §1, §7, §8

[10] = molecular target: T10, hEP1 (Homo sapiens, UniProt P34995); assay: FLIPR calcium signal, hEP1; assay type: cell-based; settings: HEK-293 (EBNA) cells, read-out: FUNCTIONAL EC50 HEP1
T10 construct: expressed in transfected cells; host or cells: HEK-293 (EBNA)
T10 sequence (P34995 1-402): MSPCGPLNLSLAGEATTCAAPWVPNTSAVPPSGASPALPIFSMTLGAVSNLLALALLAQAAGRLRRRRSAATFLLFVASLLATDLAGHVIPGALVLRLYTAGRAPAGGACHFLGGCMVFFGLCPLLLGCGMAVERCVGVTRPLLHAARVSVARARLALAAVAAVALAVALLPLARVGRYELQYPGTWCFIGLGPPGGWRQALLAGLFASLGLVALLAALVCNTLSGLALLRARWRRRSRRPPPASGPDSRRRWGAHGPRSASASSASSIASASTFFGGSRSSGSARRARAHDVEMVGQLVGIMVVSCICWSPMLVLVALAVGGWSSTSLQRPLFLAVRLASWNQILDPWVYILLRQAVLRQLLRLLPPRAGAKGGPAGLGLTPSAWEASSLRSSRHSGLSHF
Procedure: as §1, §7, §8

T1 sequence (P43116 whole entry): as the sequence (P43116 whole entry) above

Row | EC50 [1] | IC50 [2] | EC50 [3] | EC50 [4] | IC50 [5] | EC50 [6] | EC50 [7] | IC50 [8] | EC50 [9] | EC50 [10] | SMILES
1 | > 10000 nM | 600 nM | 389 nM | 3.7 nM | 26 nM | > 10000 nM | 7240 nM | > 10000 nM | – | – | O=C(O)CSCCCS[C@H]1C(=O)CC[C@@H]1/C=C/C(O)Cc1csc2ccccc12 (single isomer, unassigned) [drawing 55, {3-[2-(4-Benzo[b]thiophen-3-yl-3-hydroxy-but-1-enyl)-5-oxo-cyclopentylsulfanyl]-propylsulfanyl}-acetic acid]
2 | > 10000 nM | 3500 nM | – | > 10000 nM | – | > 10000 nM | 6.8 nM | > 10000 nM | – | – | O=C(O)CSCCCS[C@H]1C(=O)CC[C@@H]1/C=C/C(O)Cc1csc2ccccc12 (single isomer, unassigned) [drawing 56, {3-[2-(4-Benzo[b]thiophen-3-yl-3-hydroxy-but-1-enyl)-5-oxo-cyclopentylsulfanyl]-propylsulfanyl}-acetic acid]
3 | 1220 nM | 2200 nM | – | – | 20 nM | 16 nM | 1.6 nM | – | > 10000 nM | > 10000 nM | CCCCC[C@H](O)/C=C/[C@H]1CCC(=O)[C@@H]1SCCCSCC(=O)O [{3-[(1R,2R)-2-((E)-(S)-3-Hydroxy-oct-1-enyl)-5-oxo-cyclopentylsulfanyl]-propylsulfanyl}-acetic acid]
